Test results: PubChem BioAssay (NCI)
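GI50 marks 50% less growth. The concentration for full growth arrest is given as TGI.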

Columns and labels:
Assay in all cases: NCI anticancer screen, dose series, 384-well format
[1] = system: HCT-15 colon
[2] = system: LOX IMVI melanoma
[3] = system: NCI/ADR-RES ovarian
[4] = system: K-562 leukemia
[5] = system: HT29 colon
[6] = system: OVCAR-3 ovarian
[7] = system: TK-10 renal
[8] = system: T-47D breast
[9] = system: SNB-19 CNS
[10] = system: PC-3 prostate
[11] = system: NCI-H322M lung
[12] = system: IGROV1 ovarian
[13] = system: MDA-MB-435 melanoma
[14] = system: SK-MEL-5 melanoma
[15] = system: NCI-H460 NSCLC
[16] = system: KM12 colon
[17] = system: SF-539 CNS
[18] = system: SF-295 CNS
[19] = system: SN12C renal
[20] = system: SF-268 CNS
[21] = system: EKVX NSCLC
[22] = system: HOP-92 NSCLC
[23] = system: SNB-75 CNS
[24] = system: RXF 393 renal
[25] = system: CAKI-1 renal
[26] = system: MALME-3M melanoma
[27] = system: HCT-116 colon
[28] = system: SK-OV-3 ovarian
[29] = system: RPMI-8226 leukemia

COc1cc(N2CCC(N)CC2)ccc1Nc1ncc(Cl)c(-c2c[nH]c3ccccc23)n1
TGI [1]: 1460 nM
GI50 [2]: 541 nM
TGI [2]: 1860 nM
GI50 [3]: 1480 nM
TGI [3]: 2810 nM
GI50 [4]: 876 nM
TGI [4]: 2130 nM
GI50 [5]: 55.9 nM
TGI [5]: 1350 nM
GI50 [6]: 666 nM
TGI [6]: 2040 nM
GI50 [7]: 988 nM
TGI [7]: 2180 nM
GI50 [8]: 1180 nM
TGI [8]: 2410 nM
GI50 [9]: 1570 nM
TGI [9]: 2940 nM
GI50 [10]: 1090 nM
TGI [10]: 2330 nM
GI50 [11]: 254 nM
TGI [11]: 1420 nM
GI50 [12]: 284 nM
TGI [12]: 1000 nM
GI50 [13]: 395 nM
TGI [13]: 1790 nM
GI50 [14]: 610 nM
TGI [14]: 2040 nM
GI50 [15]: 184 nM
TGI [15]: 1390 nM
GI50 [16]: 209 nM
TGI [16]: 679 nM
GI50 [17]: 453 nM
TGI [17]: 1820 nM
GI50 [18]: 1450 nM
TGI [18]: 2770 nM
GI50 [19]: 513 nM
TGI [19]: 1860 nM
GI50 [20]: 1150 nM
TGI [20]: 2400 nM
GI50 [21]: 215 nM
TGI [21]: 1470 nM
GI50 [22]: 377 nM
TGI [22]: 1670 nM
GI50 [23]: 322 nM
TGI [23]: 1440 nM
GI50 [24]: 739 nM
TGI [24]: 2050 nM
GI50 [25]: 252 nM
TGI [25]: 1070 nM
GI50 [26]: 172 nM
TGI [26]: 1510 nM
GI50 [27]: 361 nM
TGI [27]: 1580 nM
GI50 [28]: 334 nM
TGI [28]: 1440 nM
GI50 [29]: 476 nM
TGI [29]: 1580 nM
